The record followed here is US7566708B2, “Substituted pyrazolo{3,4-D}pyrimidines as p38 map kinase inhibitors” (Roche Palo Alto LLC, priority 2005, dated 2009).

The target in one series is T1, p38 MAP kinase (Homo sapiens, UniProt Q16539).
T1 construct: made in house; host or cells: E. coli (co-expressed with SEK-1 and MEKK to obtain the phosphorylated form)
Kind of series: p38 (MAP) kinase in vitro assay. The series is classed as biochemical. Conditions: transfer of γ-33P from ATP to Myelin Basic Protein by phosphorylated recombinant p38 MAP kinase. As for the experimental part:
This example illustrates a p38 (MAP) kinase in vitro assay useful for evaluating the compounds of the invention.
The p38 MAP kinase inhibitory activity of compounds of this invention in vitro was determined by measuring the transfer of the γ-phosphate from γ-^33P-ATP by p-38 kinase to Myelin Basic Protein (MBP), using a minor modification of the method described in Ahn, et al., J. Biol. Chem. 266:4220-4227 (1991). […] The phosphorylated form of the recombinant p38 MAP kinase was co-expressed with SEK-1 and MEKK in E. Coli (see, Khokhlatchev, et al., J. Biol. Chem. 272:11057-11062 (1997)) and then purified by affinity chromatography using a Nickel column.
The phosphorylated p38 MAP kinase was diluted in kinase buffer (20 mM 3-(N-morpholino)propanesulfonic acid, pH 7.2, 25 mM β-glycerol phosphate, 5 mM ethylene glycol-bis(beta-aminoethyl ether)-N,N,N′,N′-tetraacetic acid, 1 mM sodium or tho-vanadate, 1 mM dithiothreitol, 40 mM magnesium chloride). Test compound dissolved in DMSO or only DMSO (control) was added and the samples were incubated for 10 min at 30° C. The kinase reaction was initiated by the addition of a substrate cocktail containing MBP and γ-^33P-ATP. […] The phosphorylated MBP was then separated from the residual γ-^33P-ATP using a phosphocellulose membrane (Millipore, Bedfrod, Mass.) and quantitated using a scintillation counter (Packard, Meriden, Conn.).

The structures appear in SMILES notation. pIC50: −log10 of the molar value.

T1 sequence (Q16539 whole entry): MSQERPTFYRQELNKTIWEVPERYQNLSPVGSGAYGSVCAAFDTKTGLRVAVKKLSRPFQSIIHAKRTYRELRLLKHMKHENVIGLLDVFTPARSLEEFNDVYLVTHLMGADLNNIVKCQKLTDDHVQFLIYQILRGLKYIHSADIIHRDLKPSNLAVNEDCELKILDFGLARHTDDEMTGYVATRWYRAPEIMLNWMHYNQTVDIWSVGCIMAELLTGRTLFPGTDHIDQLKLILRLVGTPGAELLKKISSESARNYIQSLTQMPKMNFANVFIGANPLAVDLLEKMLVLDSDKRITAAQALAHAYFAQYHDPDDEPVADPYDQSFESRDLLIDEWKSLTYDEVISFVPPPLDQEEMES

For orientation: pIC50 means −log10 of the IC50, conventionally taken in molar units. Turning to `CC(C)(O)CNc1nc(Oc2ccc(F)cc2F)cc2[nH]nc(-c3cc(F)ccc3F)c12` [Compound 45, 1-[6-(2,4-Difluoro-phenoxy)-3-(2,5-difluoro-phenyl)-1H-pyrazolo[4,3-c]pyridin-4-ylamino]-2-methyl-propan-2-ol], at p38 MAP kinase, the pIC50 was ~9.00. By melting point is commonly meant the temperature of the solid-liquid transition. For `Fc1ccc(Oc2ncc3c(-c4ccccc4Cl)n[nH]c3n2)c(F)c1` [Example 1, 3-(2-chlorophenyl)-6-(2,4-difluoro-phenoxy)-1H-pyrazolo[3,4-d]pyrimidine], the melting point lay in the range of 173.4 to 176.4 °C. The same measure, in the same setting: for `Fc1ccccc1Nc1ncc2c(-c3ccccc3Cl)n[nH]c2n1` [Example 2, [3-(2-chlorophenyl)-1H-pyrazolo[3,4-d]pyrimidin-6-yl]-(2-fluorophenyl)amine] the value was 230.2 to 232.4 °C. The same measure, in the same setting: then `Fc1ccc(Sc2ncc3c(-c4ccccc4Cl)n[nH]c3n2)c(F)c1` [Example 3, 3-(2-chlorophenyl)-6-(2,4-difluorophenylsulfanyl)-1H-pyrazolo[3,4-d]pyrimidine], with 177.6 to 183.2 °C. Still for that read-out and setting: for `Fc1ccc(Oc2cnc3c(-c4ccccc4Cl)n[nH]c3n2)c(F)c1` [Example 5, 3-(2-chlorophenyl)-6-(2,4-difluorophenoxy)-1H-pyrazolo[3,4-b]pyrazine] the value was 240.5 to 241.5 °C; for `COc1ccccc1-c1n[nH]c2cc(Oc3ccc(F)cc3F)cnc12` [Example 8, 6-(2,4-Difluoro-phenoxy)-3-(2-methoxy-phenyl)-1H-pyrazolo[4,3-b]pyridine], 143.2 to 144.9 °C. Take `Clc1ccccc1Oc1ncc2c(-c3cccs3)n[nH]c2n1` [Example 14, 6-(2-Chloro-phenoxy)-3-thiophen-2-yl-1H-pyrazolo[3,4-d]pyrimidine]: the melting point was in the range of 221.3 to 223.1 °C. On the same count and under the same terms, for `C[C@H](O)CNc1nc(Oc2ccc(F)cc2F)nc2[nH]nc(-c3ccccc3Cl)c12` [Example 16, (S)-1-[3-(2-chlorophenyl)-6-(2,4-difluorophenoxy)-1H-pyrazolo[3,4-d]pyrimidin-4-ylamino]propan-2-ol] the value was 254.6 to 258.2 °C; for `OC[C@H](O)COc1nc(Oc2ccc(F)cc2F)nc2[nH]nc(-c3ccccc3Cl)c12` [Example 20, (S)-3-[3-(2-Chloro-phenyl)-6-(2,4-difluoro-phenoxy)-1H-pyrazolo[3,4-d]pyrimidin-4-yloxy]-propane-1,2-diol], 179.2 to 181.3 °C; for `C[C@H](O)CNc1nc(Oc2ccc(F)cc2F)cc2[nH]nc(-c3ccccc3Cl)c12` [Example 24, (S)-1-[3-(2-Chloro-phenyl)-6-(2,4-difluoro-phenoxy)-1H-pyrazolo[4,3-c]pyridin-4-ylamino]-propan-2-ol], 171.2 to 172 °C.
